Among the test systems are NCI-H460 lung; HCT-116 colon; EKVX NSCLC; MCF7 breast; SK-MEL-5 melanoma; NCI/ADR-RES ovarian; RXF 393 renal; SK-OV-3 ovarian; UACC-62 melanoma; HT29 colon.
Common to all, as to experiment: DTP human tumour cell line panel, 48 h

SMILES strings stand for the structures. Values joined by “and” are separate entries in the source; they are usually repeats but may differ in a detail not shown here. Equal values may be shown once.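 The compound was tested at five concentrations on cells cultured in 96-well plates, with a 48-hour exposure period. GI50 marks 50% less growth. TGI: total growth inhibition.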 Some results are limits rather than exact numbers.

`CC1(C)N=C(N)N=C(N)N1c1ccc(OCC(=O)N2CCOCC2)c(Cl)c1`: the GI50 was 0.362 µM in the experiment on NCI-H460 lung; 0.667 µM in the experiment with HCT-116 colon; 2.29 µM in the experiment on EKVX NSCLC; 1.36 µM with MCF7 breast; 1.36 µM in the experiment with SK-MEL-5 melanoma; greater than 100 µM in the experiment with NCI/ADR-RES ovarian. The GI50 with RXF 393 renal is 52.8 µM; in the experiment with SK-OV-3 ovarian, 69.8 µM; in the experiment with UACC-62 melanoma it was 4.74 µM; in the experiment on HT29 colon it was 0.66 µM. Also, the TGI in the experiment on NCI-H460 lung, with HCT-116 colon, in the experiment with EKVX NSCLC, in the experiment with MCF7 breast, with SK-MEL-5 melanoma and in the experiment with NCI/ADR-RES ovarian was greater than 100 µM each time. For the same compound, the TGI in the experiment on RXF 393 renal, with SK-OV-3 ovarian, in the experiment with UACC-62 melanoma and in the experiment with HT29 colon was greater than 100 µM in each case.
For the compound `O=C(Nc1cccc([N+](=O)[O-])c1)c1ccc2ccccc2c1O`, the GI50 with NCI-H460 lung is 3.69 µM; in the experiment on HCT-116 colon, 5.27 µM; in the experiment on EKVX NSCLC, 2.9 µM; in the experiment with MCF7 breast, 2.88 µM; with SK-MEL-5 melanoma, 1.75 µM; in the experiment with NCI/ADR-RES ovarian, 5.62 µM. The GI50 in the experiment with RXF 393 renal was 3.37 µM; with SK-OV-3 ovarian it was 7.05 µM; with UACC-62 melanoma it was 4.22 µM; in the experiment on HT29 colon it was 22 µM. Moreover, the total growth inhibition concentration (TGI) in the experiment on NCI-H460 lung is greater than 100 µM; in the experiment with HCT-116 colon, greater than 100 µM; in the experiment on EKVX NSCLC it was greater than 57.2 µM; in the experiment on MCF7 breast, greater than 43.2 µM; in the experiment on SK-MEL-5 melanoma, 6.41 µM; with NCI/ADR-RES ovarian it was greater than 86.5 µM. Moreover, the TGI in the experiment on RXF 393 renal is greater than 35.4 µM; in the experiment on SK-OV-3 ovarian it was greater than 59.9 µM; in the experiment on UACC-62 melanoma, greater than 100 µM; in the experiment on HT29 colon it was greater than 100 µM.
As for `CNc1cccnc1/C=N/NC(N)=S`, the TGI in the experiment with NCI-H460 lung was greater than 10 µM; in the experiment on HCT-116 colon it was greater than 8.26 µM; in the experiment on EKVX NSCLC, greater than 10 µM; in the experiment on MCF7 breast, greater than 10 µM; with SK-MEL-5 melanoma, greater than 10 µM; with NCI/ADR-RES ovarian, 9.94 µM. Besides, the TGI in the experiment on RXF 393 renal was greater than 10 µM; in the experiment with SK-OV-3 ovarian, greater than 10 µM; with UACC-62 melanoma, 3.07 µM; in the experiment on HT29 colon, greater than 10 µM.
`Nc1nc(Cl)c(N=Nc2ccc(Cl)cc2)c(NCC2(CO)CC(OCc3ccccc3)C2)n1` (stereo not given): the GI50 in the experiment with NCI-H460 lung is 7.43 µM and 29.4 µM and 3.85 µM; with HCT-116 colon it was 7.37 µM and 40.9 µM and 8.76 µM; with EKVX NSCLC, 2.37 µM and 11 µM and 3.08 µM; with MCF7 breast, 3.9 µM and 31.3 µM and 7.84 µM; in the experiment with NCI/ADR-RES ovarian, 6.55 µM and 9.08 µM and 3.98 µM; in the experiment with RXF 393 renal, 5.17 µM and > 48.3 µM and 8.18 µM. Moreover, the TGI was 86.1 µM and > 100 µM and 17.7 µM in the experiment with NCI-H460 lung; > 100 µM and 32.4 µM in the experiment on HCT-116 colon; 14.2 µM and > 100 µM and 22.6 µM in the experiment with MCF7 breast; 21 µM and > 100 µM and 38.7 µM in the experiment with SK-MEL-5 melanoma; 77.8 µM and > 100 µM and 16.2 µM with NCI/ADR-RES ovarian; 19.7 µM and > 100 µM and 25.6 µM in the experiment with RXF 393 renal. For the same compound, the TGI is 69.9 µM and > 100 µM and 30 µM in the experiment on SK-OV-3 ovarian; 55.2 µM and > 100 µM and 25.1 µM with UACC-62 melanoma; 20 µM and > 100 µM and 14 µM in the experiment on HT29 colon.
For `COC(=O)c1cc2c3ccccc3n3c(=O)c4cc5cc(OC)c(N(S(=O)(=O)c6ccc(C)cc6)S(=O)(=O)c6ccc(C)cc6)cc5nc4c(n1)c23`, the GI50 in the experiment on NCI-H460 lung was greater than 100 µM; in the experiment on HCT-116 colon it was 13.5 µM; in the experiment with EKVX NSCLC, 39.2 µM; in the experiment on MCF7 breast, greater than 100 µM; in the experiment on SK-MEL-5 melanoma, greater than 100 µM; in the experiment on NCI/ADR-RES ovarian, greater than 100 µM. Further, the GI50 in the experiment with RXF 393 renal was 7.56 µM; with SK-OV-3 ovarian, 4.53 µM; in the experiment with UACC-62 melanoma, 24.9 µM; in the experiment with HT29 colon it was greater than 100 µM. The TGI was greater than 100 µM in the experiment with NCI-H460 lung; 59.7 µM in the experiment with HCT-116 colon; greater than 100 µM with EKVX NSCLC; greater than 100 µM in the experiment on MCF7 breast; greater than 100 µM in the experiment with SK-MEL-5 melanoma; greater than 100 µM in the experiment on NCI/ADR-RES ovarian. The TGI with RXF 393 renal is 26.1 µM; in the experiment with SK-OV-3 ovarian, 81.3 µM; in the experiment with UACC-62 melanoma it was greater than 100 µM; with HT29 colon it was greater than 100 µM.
On to `CO/N=C(\COc1ccc2c(c1)oc(=O)c1cc(OC)ccc12)c1cccc(OC)c1`, for which the GI50 in the experiment with NCI-H460 lung, with HCT-116 colon, with EKVX NSCLC, in the experiment with MCF7 breast, with SK-MEL-5 melanoma and in the experiment on NCI/ADR-RES ovarian was greater than 100 µM in each case. Besides, the GI50 in the experiment with RXF 393 renal, in the experiment with SK-OV-3 ovarian, with UACC-62 melanoma and in the experiment on HT29 colon was greater than 100 µM in each case. Also, the concentration for total growth inhibition (TGI) in the experiment on NCI-H460 lung, with HCT-116 colon, in the experiment on EKVX NSCLC, with MCF7 breast, in the experiment with SK-MEL-5 melanoma and in the experiment with NCI/ADR-RES ovarian was greater than 100 µM throughout. In addition, the total growth inhibition concentration (TGI) in the experiment with RXF 393 renal, in the experiment with SK-OV-3 ovarian, in the experiment on UACC-62 melanoma and with HT29 colon was greater than 100 µM throughout.
Consider `COc1cc(C2CC(c3ccc(Nc4ccnc5cc(Cl)ccc45)cc3)=NN2C=O)cc(OC)c1OC` (stereo not given), for which the GI50 with NCI-H460 lung was 4.42 µM; in the experiment with HCT-116 colon, 3.21 µM; in the experiment with EKVX NSCLC it was 11.7 µM; in the experiment on MCF7 breast it was 3.23 µM; with SK-MEL-5 melanoma it was 1.98 µM; in the experiment with NCI/ADR-RES ovarian, 7.88 µM. Moreover, the GI50 in the experiment on RXF 393 renal is 2.22 µM; with SK-OV-3 ovarian, 3.36 µM; in the experiment on UACC-62 melanoma, 2.2 µM; in the experiment with HT29 colon, 2.83 µM. Besides, the TGI in the experiment on NCI-H460 lung is greater than 100 µM; in the experiment on HCT-116 colon it was 9.61 µM; in the experiment on EKVX NSCLC, greater than 100 µM; in the experiment with MCF7 breast it was greater than 100 µM; in the experiment with SK-MEL-5 melanoma it was 6.28 µM; in the experiment on NCI/ADR-RES ovarian, greater than 100 µM. In addition, the TGI amounted to 8.01 µM with RXF 393 renal, 10.9 µM with SK-OV-3 ovarian, 6.87 µM with UACC-62 melanoma and 7.17 µM with HT29 colon.
`O=c1[nH]ccc2nc(-c3ccc(CN4CCC(c5nc(-c6ccccn6)n[nH]5)CC4)cc3)c(-c3ccccc3)cc12`: the GI50 in the experiment with NCI-H460 lung is 1.15 µM; with HCT-116 colon it was 17.2 µM; in the experiment on EKVX NSCLC it was 15.8 µM; in the experiment with MCF7 breast, 0.282 µM; in the experiment on SK-MEL-5 melanoma, 6.03 µM; with NCI/ADR-RES ovarian, 36.7 µM. For the same compound, the concentration for 50% growth inhibition (GI50) in the experiment with RXF 393 renal was 0.272 µM; with SK-OV-3 ovarian it was 0.124 µM; in the experiment with UACC-62 melanoma, 16.3 µM; with HT29 colon, 1.98 µM. For the same compound, the TGI in the experiment on NCI-H460 lung is greater than 100 µM; in the experiment with HCT-116 colon, greater than 92.7 µM; in the experiment with EKVX NSCLC, greater than 100 µM; with MCF7 breast it was 33.2 µM; with SK-MEL-5 melanoma, 24 µM; with NCI/ADR-RES ovarian, greater than 100 µM. For the same compound, the TGI in the experiment on RXF 393 renal is 4.73 µM; in the experiment on SK-OV-3 ovarian, greater than 100 µM; with UACC-62 melanoma it was greater than 86.6 µM; in the experiment on HT29 colon, greater than 100 µM.

Usually GI50 stands for the concentration giving 50% growth inhibition. A word on the TGI: it is the concentration giving total growth inhibition. High values mean less potent growth arrest, low ones more potent growth arrest.
